Here are results for one compound from the NIST ThermoML archive (doi:10.1016/j.fluid.2011.03.012).

Numbers after ± are expanded uncertainties.

Data set [1] in a line: Molar enthalpy of transition or fusion. Conditions: Crystal; DSC.
For data set [2] the following is noted: Crystal; DTA.

For `Cc1cnc(NC(=O)C2=C(O)c3ccccc3S(=O)(=O)N2C)s1` [meloxicam], the “Molar enthalpy of transition or fusion” value in data set [1] stood at 10.5 ± 0.287 kcal/mol. The Normal melting temperature in data set [2] was 263.6 ± 1.4 °C.
